Source: paper PMC8459971, “Evaluation of the hepatotoxicity of the novel GPR40 (FFAR1) agonist CPL207280 in the rat and monkey” (PLoS ONE, 2021)
Read-outs that look alike come from different tables or passages of the source.

System: HepaRG spheroids
Assay: HepaRG 3D spheroids, cell and mitochondrial health markers, 14 days
Conditions: for High Cell Loss (Cellular ATP) / High Cell Loss (DNA structure) / High Cell Loss (Glutathione content) / High Cell Loss (Mitochondrial mass) / High Cell Loss (Mitochondrial membrane potential) / High Cell Loss (Oxidative stress) / High Cell Loss (Spheroid count) / High Cell Loss (Spheroid size): timepoint 336; for AC50: Homo sapiens, HepaRG
[1] = HepaRG spheroid, TIMEPOINT 336, at the concentration (uM) given
[2] = HepaRG spheroid, TIMEPOINT 336, plotted value at the concentration given

High Cell Loss (Cellular ATP) (CONC 0.4 uM, HepaRG spheroid): N
High Cell Loss (DNA structure) (CONC 0.4 uM, HepaRG spheroid): N
High Cell Loss (Glutathione content) (CONC 0.4 uM, HepaRG spheroid): N
High Cell Loss (Mitochondrial mass) (CONC 0.4 uM, HepaRG spheroid): N
High Cell Loss (Mitochondrial membrane potential) (CONC 0.4 uM, HepaRG spheroid): N
High Cell Loss (Oxidative stress) (CONC 0.4 uM, HepaRG spheroid): N
High Cell Loss (Spheroid count) (CONC 0.4 uM, HepaRG spheroid): N
High Cell Loss (Spheroid size) (CONC 0.4 uM, HepaRG spheroid): N
High Cell Loss (Cellular ATP) (CONC 1 uM, HepaRG spheroid): N
High Cell Loss (DNA structure) (CONC 1 uM, HepaRG spheroid): N
High Cell Loss (Glutathione content) (CONC 1 uM, HepaRG spheroid): N
High Cell Loss (Mitochondrial mass) (CONC 1 uM, HepaRG spheroid): N
High Cell Loss (Mitochondrial membrane potential) (CONC 1 uM, HepaRG spheroid): N
High Cell Loss (Oxidative stress) (CONC 1 uM, HepaRG spheroid): N
High Cell Loss (Spheroid count) (CONC 1 uM, HepaRG spheroid): N
High Cell Loss (Spheroid size) (CONC 1 uM, HepaRG spheroid): N
High Cell Loss (Cellular ATP) (CONC 4 uM, HepaRG spheroid): N
High Cell Loss (DNA structure) (CONC 4 uM, HepaRG spheroid): N
High Cell Loss (Glutathione content) (CONC 4 uM, HepaRG spheroid): N
High Cell Loss (Mitochondrial mass) (CONC 4 uM, HepaRG spheroid): N
High Cell Loss (Mitochondrial membrane potential) (CONC 4 uM, HepaRG spheroid): N
High Cell Loss (Oxidative stress) (CONC 4 uM, HepaRG spheroid): N
High Cell Loss (Spheroid count) (CONC 4 uM, HepaRG spheroid): N
High Cell Loss (Spheroid size) (CONC 4 uM, HepaRG spheroid): N
High Cell Loss (Cellular ATP) (CONC 10 uM, HepaRG spheroid): N
High Cell Loss (DNA structure) (CONC 10 uM, HepaRG spheroid): N
High Cell Loss (Glutathione content) (CONC 10 uM, HepaRG spheroid): N
High Cell Loss (Mitochondrial mass) (CONC 10 uM, HepaRG spheroid): N
High Cell Loss (Mitochondrial membrane potential) (CONC 10 uM, HepaRG spheroid): N
High Cell Loss (Oxidative stress) (CONC 10 uM, HepaRG spheroid): N
High Cell Loss (Spheroid count) (CONC 10 uM, HepaRG spheroid): N
High Cell Loss (Spheroid size) (CONC 10 uM, HepaRG spheroid): N
High Cell Loss (Cellular ATP) (CONC 40 uM, HepaRG spheroid): N
High Cell Loss (DNA structure) (CONC 40 uM, HepaRG spheroid): N
High Cell Loss (Glutathione content) (CONC 40 uM, HepaRG spheroid): N
High Cell Loss (Mitochondrial mass) (CONC 40 uM, HepaRG spheroid): N
High Cell Loss (Mitochondrial membrane potential) (CONC 40 uM, HepaRG spheroid): N
High Cell Loss (Oxidative stress) (CONC 40 uM, HepaRG spheroid): N
High Cell Loss (Spheroid count) (CONC 40 uM, HepaRG spheroid): N
High Cell Loss (Spheroid size) (CONC 40 uM, HepaRG spheroid): N
High Cell Loss (Cellular ATP) (CONC 100 uM, HepaRG spheroid): N
High Cell Loss (DNA structure) (CONC 100 uM, HepaRG spheroid): N
High Cell Loss (Glutathione content) (CONC 100 uM, HepaRG spheroid): N
High Cell Loss (Mitochondrial mass) (CONC 100 uM, HepaRG spheroid): N
High Cell Loss (Mitochondrial membrane potential) (CONC 100 uM, HepaRG spheroid): N
High Cell Loss (Oxidative stress) (CONC 100 uM, HepaRG spheroid): N
High Cell Loss (Spheroid count) (CONC 100 uM, HepaRG spheroid): N
High Cell Loss (Spheroid size) (CONC 100 uM, HepaRG spheroid): N
High Cell Loss (Cellular ATP) (CONC 400 uM, HepaRG spheroid): N
High Cell Loss (DNA structure) (CONC 400 uM, HepaRG spheroid): N
High Cell Loss (Glutathione content) (CONC 400 uM, HepaRG spheroid): N
High Cell Loss (Mitochondrial mass) (CONC 400 uM, HepaRG spheroid): N
High Cell Loss (Mitochondrial membrane potential) (CONC 400 uM, HepaRG spheroid): N
High Cell Loss (Oxidative stress) (CONC 400 uM, HepaRG spheroid): N
High Cell Loss (Spheroid count) (CONC 400 uM, HepaRG spheroid): N
High Cell Loss (Spheroid size) (CONC 400 uM, HepaRG spheroid): N
High Cell Loss (Cellular ATP) (CONC 1000 uM, HepaRG spheroid): N
High Cell Loss (DNA structure) (CONC 1000 uM, HepaRG spheroid): N
High Cell Loss (Glutathione content) (CONC 1000 uM, HepaRG spheroid): N
High Cell Loss (Mitochondrial mass) (CONC 1000 uM, HepaRG spheroid): N
High Cell Loss (Mitochondrial membrane potential) (CONC 1000 uM, HepaRG spheroid): N
High Cell Loss (Oxidative stress) (CONC 1000 uM, HepaRG spheroid): N
High Cell Loss (Spheroid count) (CONC 1000 uM, HepaRG spheroid): N
High Cell Loss (Spheroid size) (CONC 1000 uM, HepaRG spheroid): N
SMILES: CCCCS(=N)(=O)CC[C@H](N)C(=O)O (stereo partly drawn) [L-buthionine-sulfoximine]
Cellular ATP Mean Plotted Value (CONC 0.4 uM, TIMEPOINT 336): 1.06
DNA structure Mean Plotted Value (CONC 0.4 uM, TIMEPOINT 336): 1
Glutathione content Mean Plotted Value (CONC 0.4 uM, TIMEPOINT 336): 0.883
Mitochondrial mass Mean Plotted Value (CONC 0.4 uM, TIMEPOINT 336): 1.03
Mitochondrial membrane potential Mean Plotted Value (CONC 0.4 uM, TIMEPOINT 336): 0.945
Oxidative stress Mean Plotted Value (CONC 0.4 uM, TIMEPOINT 336): 1.02
Spheroid count Mean Plotted Value (CONC 0.4 uM, TIMEPOINT 336): 1
Spheroid size Mean Plotted Value (CONC 0.4 uM, TIMEPOINT 336): 0.995
Cellular ATP Mean Plotted Value (CONC 1 uM, TIMEPOINT 336): 1.05
DNA structure Mean Plotted Value (CONC 1 uM, TIMEPOINT 336): 1.1
Glutathione content Mean Plotted Value (CONC 1 uM, TIMEPOINT 336): 0.886
Mitochondrial mass Mean Plotted Value (CONC 1 uM, TIMEPOINT 336): 1.14
Mitochondrial membrane potential Mean Plotted Value (CONC 1 uM, TIMEPOINT 336): 1
Oxidative stress Mean Plotted Value (CONC 1 uM, TIMEPOINT 336): 0.984
Spheroid count Mean Plotted Value (CONC 1 uM, TIMEPOINT 336): 1
Spheroid size Mean Plotted Value (CONC 1 uM, TIMEPOINT 336): 1.06
Cellular ATP Mean Plotted Value (CONC 4 uM, TIMEPOINT 336): 0.856
DNA structure Mean Plotted Value (CONC 4 uM, TIMEPOINT 336): 0.816
Glutathione content Mean Plotted Value (CONC 4 uM, TIMEPOINT 336): 0.715
Mitochondrial mass Mean Plotted Value (CONC 4 uM, TIMEPOINT 336): 1.03
Mitochondrial membrane potential Mean Plotted Value (CONC 4 uM, TIMEPOINT 336): 0.861
Oxidative stress Mean Plotted Value (CONC 4 uM, TIMEPOINT 336): 1
Spheroid count Mean Plotted Value (CONC 4 uM, TIMEPOINT 336): 1
Spheroid size Mean Plotted Value (CONC 4 uM, TIMEPOINT 336): 0.997
Cellular ATP Mean Plotted Value (CONC 10 uM, TIMEPOINT 336): 0.697
DNA structure Mean Plotted Value (CONC 10 uM, TIMEPOINT 336): 1.13
Glutathione content Mean Plotted Value (CONC 10 uM, TIMEPOINT 336): 0.689
Mitochondrial mass Mean Plotted Value (CONC 10 uM, TIMEPOINT 336): 0.979
Mitochondrial membrane potential Mean Plotted Value (CONC 10 uM, TIMEPOINT 336): 0.943
Oxidative stress Mean Plotted Value (CONC 10 uM, TIMEPOINT 336): 1.04
Spheroid count Mean Plotted Value (CONC 10 uM, TIMEPOINT 336): 1
Spheroid size Mean Plotted Value (CONC 10 uM, TIMEPOINT 336): 0.951
Cellular ATP Mean Plotted Value (CONC 40 uM, TIMEPOINT 336): 0.216
DNA structure Mean Plotted Value (CONC 40 uM, TIMEPOINT 336): 1.18
Glutathione content Mean Plotted Value (CONC 40 uM, TIMEPOINT 336): 0.15
Mitochondrial mass Mean Plotted Value (CONC 40 uM, TIMEPOINT 336): 1.05
Mitochondrial membrane potential Mean Plotted Value (CONC 40 uM, TIMEPOINT 336): 0.972
Oxidative stress Mean Plotted Value (CONC 40 uM, TIMEPOINT 336): 1.22
Spheroid count Mean Plotted Value (CONC 40 uM, TIMEPOINT 336): 1
Spheroid size Mean Plotted Value (CONC 40 uM, TIMEPOINT 336): 0.955
Cellular ATP Mean Plotted Value (CONC 100 uM, TIMEPOINT 336): 0.019
DNA structure Mean Plotted Value (CONC 100 uM, TIMEPOINT 336): 1.13
Glutathione content Mean Plotted Value (CONC 100 uM, TIMEPOINT 336): 0.119
Mitochondrial mass Mean Plotted Value (CONC 100 uM, TIMEPOINT 336): 1.03
Mitochondrial membrane potential Mean Plotted Value (CONC 100 uM, TIMEPOINT 336): 0.807
Oxidative stress Mean Plotted Value (CONC 100 uM, TIMEPOINT 336): 1.13
Spheroid count Mean Plotted Value (CONC 100 uM, TIMEPOINT 336): 1
Spheroid size Mean Plotted Value (CONC 100 uM, TIMEPOINT 336): 0.975
Cellular ATP Mean Plotted Value (CONC 400 uM, TIMEPOINT 336): 0.00038
DNA structure Mean Plotted Value (CONC 400 uM, TIMEPOINT 336): 0.279
Glutathione content Mean Plotted Value (CONC 400 uM, TIMEPOINT 336): 0.0382
Mitochondrial mass Mean Plotted Value (CONC 400 uM, TIMEPOINT 336): 0.963
Mitochondrial membrane potential Mean Plotted Value (CONC 400 uM, TIMEPOINT 336): 0.452
Oxidative stress Mean Plotted Value (CONC 400 uM, TIMEPOINT 336): 0.937
Spheroid count Mean Plotted Value (CONC 400 uM, TIMEPOINT 336): 1
Spheroid size Mean Plotted Value (CONC 400 uM, TIMEPOINT 336): 0.965
Cellular ATP Mean Plotted Value (CONC 1000 uM, TIMEPOINT 336): 0.000301
DNA structure Mean Plotted Value (CONC 1000 uM, TIMEPOINT 336): 0.123
Glutathione content Mean Plotted Value (CONC 1000 uM, TIMEPOINT 336): 0.0358
Mitochondrial mass Mean Plotted Value (CONC 1000 uM, TIMEPOINT 336): 0.999
Mitochondrial membrane potential Mean Plotted Value (CONC 1000 uM, TIMEPOINT 336): 0.412
Oxidative stress Mean Plotted Value (CONC 1000 uM, TIMEPOINT 336): 0.683
Spheroid count Mean Plotted Value (CONC 1000 uM, TIMEPOINT 336): 1
Spheroid size Mean Plotted Value (CONC 1000 uM, TIMEPOINT 336): 0.983
Cellular ATP MEC (HepaRG spheroid, TIMEPOINT 336): 6.84 µM
DNA structure MEC (HepaRG spheroid, TIMEPOINT 336): 222 µM
Glutathione content MEC (HepaRG spheroid, TIMEPOINT 336): 2.95 µM
Mitochondrial membrane potential MEC (HepaRG spheroid, TIMEPOINT 336): 177 µM
Oxidative stress MEC (HepaRG spheroid, TIMEPOINT 336): 658 (NS) uM
Cellular ATP MR (% @ concentration) [1]: 100%
DNA structure MR (% @ concentration) [1]: 89%
Glutathione content MR (% @ concentration) [1]: 96%
Mitochondrial membrane potential MR (% @ concentration) [1]: 58%
Oxidative stress MR (% @ concentration) [1]: 35%
Cellular ATP MR [2]: 0.000301
DNA structure MR [2]: 0.123
Glutathione content MR [2]: 0.0358
Mitochondrial membrane potential MR [2]: 0.412
Oxidative stress MR [2]: 0.683
AC50 (read-out: Cellular ATP AC50): 15.5 µM
AC50 (read-out: DNA structure AC50): 294 µM
AC50 (read-out: Glutathione content AC50): 16.2 µM
AC50 (read-out: Mitochondrial mass AC50): > 1000 µM
AC50 (read-out: Mitochondrial membrane potential AC50): 511 µM
AC50 (read-out: Oxidative stress AC50): > 1000 µM
AC50 (read-out: Spheroid count AC50): > 1000 µM
AC50 (read-out: Spheroid size AC50): > 1000 µM
